Measurements from article PMC12193058, “Discovery of Small Molecules Targeting Norovirus 3CL Protease by Multi-Stage Virtual Screening” (International Journal of Molecular Sciences, 2025).

Tests used:
[1] = tested on: Murine norovirus (MNV, strain MNV-1.CW1); assay: Antiviral assay: MNV-infected RAW264.7 cells, protection from CPE (MTS); type: cell-based
Procedure: (§1) Murine norovirus (MNV, strain MNV-1. CW1) was propagated as previously described. HG23 cells and RAW 264.7 cells were maintained as described earlier. The cells were incubated at 37 °C in a humidified atmosphere of 5% CO2. To obtain virus stock, once full CPE was observed, the cells underwent two freeze–thaw cycles and the virus was harvested from the supernatants after centrifugation (10 min, 1000× g) and stored at […]. The viral titer was determined by endpoint titration.
(§2) The experiment was performed as previously described. In short, RAW264.7 cells (1 × 10^4 cells/well) were infected with MNV.CW1 in the presence of a dilution series of compounds. Antiviral activity and cytotoxicity were determined using a colorimetric assay using 3-(4,5-dimethylthiazol-2-yl)-5-(3-carboxymethoxyphenyl)-2-(4 sulfophenyl)-2H-tetrazolium (MTS). The 50% effective concentration (EC50) was defined as the compound concentration that protected 50% of the cells from CPE. The cell viability % was calculated as (ODtreated/ODCC) × […] and the 50% cytotoxic concentration (CC50) was defined as the compound concentration that reduces the number of viable cells by 50%. HuNoVGI.1replicon: The experiment was performed as described earlier with minor modifications. In short, HG23 cells (7.5 × 10^2 cells/well) were seeded into the wells of a 96-well plate without G418 (Geneticin Selective Antibiotic). After 24 h of incubation, the tested compounds were added. The cells were incubated for another 72 h; then they were collected for RNA load quantification using RT-qPCR [34]. The EC50 values were defined as the compound concentration that led to a 50% reduction in the relative HuNoV GI.1 replicon RNA levels.

[2] = Cytotoxicity assay (MTS) in non-infected cells; type: cell-based; conditions: mouse, RAW264.7 cells (non-infected); cytotoxic concentration to induce 50% death of non-infected cells; mean of two to three independent experiments
Procedure: as §1, §2

For `CC1=NN=C(O)C1CC(=O)N/N=C/c1cccc(Br)c1` (stereo not shown) [YY-0182], the EC50 [1] was over 50 µM and the CC50 [2] was over 50 µM.
Work on `COc1cc(C(CC(=O)NCC(=O)NCc2ccco2)c2oc(C)cc(=O)c2O)ccc1O` (stereo not shown) [YY-0420] yielded an EC50 [1] of over 50 µM and a CC50 [2] of over 50 µM.
For `Cc1[nH][nH]c(=O)c1CC(=O)N1C[C@@H](c2ccccc2)O[C@@H](C(C)C)C1` [YY-0587], the EC50 [1] was over 50 µM and the CC50 [2] was over 50 µM.
`CCC(SC1=Nc2ccccc2C2=NC(=O)C(CCC(=O)NCc3ccc(F)cc3)N12)C(=O)Nc1cccc(OC)c1` (stereo not shown) [YY-0734] showed an EC50 [1] of over 50 µM and a CC50 [2] of over 50 µM.
For `Cc1cc(N)n(CC(=O)N(Cc2cccnc2)Cc2ccc3c(c2)OCO3)n1` [YY-0744], the EC50 [1] was over 50 µM and the CC50 [2] was over 50 µM.
With `Cc1nc2ccc(NC(=O)N3CCNC(=O)C3CCO)cc2nc1C` (stereo not shown) [YY-0809] the EC50 [1] was over 50 µM and the CC50 [2] was over 50 µM.
With `COc1cncc(C(NC(=O)c2cc(=O)[nH]c3ccccc23)[C@H]2C[C@H](O)C2)c1` (stereo partly shown) [YY-3656] the EC50 [1] was over 50 µM and the CC50 [2] was over 50 µM.
With `O=C(NC1CCCc2ccccc21)[C@H](Cc1ccccc1)NC(=O)N1CC(O)=Nc2ccccc21` (stereo partly shown) [YY-3724] the EC50 [1] was over 50 µM and the CC50 [2] was over 50 µM.
`CC(C)C1C(O)=Nc2ccccc2N1C(=O)N[C@@H](Cc1ccccc1)C(=O)N[C@@H](CCC(N)=O)C(=O)O` (stereo partly shown) [YY-4047] gave an EC50 [1] of over 50 µM and a CC50 [2] of over 50 µM.
`CNC(=O)c1ccc(C)c(NC(=O)NCCN2CCNC2=O)c1` [YY-4095] gave an EC50 [1] of over 50 µM and a CC50 [2] of over 50 µM.
With `COc1ccc(CCNC(=O)[C@H](Cc2ccccc2)NC(=O)N2CC(O)=Nc3ccccc32)cc1` [YY-4204] the EC50 [1] was over 50 µM and the CC50 [2] was over 50 µM.
Work on `COc1ccc(C(CC(=O)N2CCc3c([nH]c4ccccc34)C2)c2oc(C)cc(=O)c2O)cc1O` (stereo not shown) [YY-4958] yielded an EC50 [1] of over 50 µM and a CC50 [2] of over 50 µM.
Compound `CCCCNC(=O)[C@H](Cc1ccccc1)NC(=O)N1CC(O)=Nc2ccccc21` [YY-6127] has an EC50 [1] of over 50 µM and a CC50 [2] of over 50 µM.
Compound `COc1ccc(CCN(C(=O)Cc2nnc(O)c3ccccc23)[C@@H](C)C(N)=O)cc1` [YY-8610] has an EC50 [1] of over 50 µM and a CC50 [2] of over 50 µM.
`O=C(ON1C(=O)CCC1=O)[C@H](Cc1ccccc1)NC(=O)N1CC(O)=Nc2ccccc21` [YY-9242] showed an EC50 [1] of over 50 µM and a CC50 [2] of over 50 µM.
Work on `O=C(NCc1cccc(Cl)c1)[C@H](Cc1ccccc1)NC(=O)N1CC(O)=Nc2ccccc21` [YY-9773] yielded an EC50 [1] of over 50 µM and a CC50 [2] of over 50 µM.
With `COc1cc(NC(=O)[C@H](Cc2ccccc2)NC(=O)N2CC(O)=Nc3ccccc32)cc(OC)c1` [YY-9837] the EC50 [1] was over 50 µM and the CC50 [2] was 45 µM.
